# Target: T1, Mineralocorticoid receptor (Homo sapiens, UniProt P08235)
# T1 sequence (P08235 whole entry): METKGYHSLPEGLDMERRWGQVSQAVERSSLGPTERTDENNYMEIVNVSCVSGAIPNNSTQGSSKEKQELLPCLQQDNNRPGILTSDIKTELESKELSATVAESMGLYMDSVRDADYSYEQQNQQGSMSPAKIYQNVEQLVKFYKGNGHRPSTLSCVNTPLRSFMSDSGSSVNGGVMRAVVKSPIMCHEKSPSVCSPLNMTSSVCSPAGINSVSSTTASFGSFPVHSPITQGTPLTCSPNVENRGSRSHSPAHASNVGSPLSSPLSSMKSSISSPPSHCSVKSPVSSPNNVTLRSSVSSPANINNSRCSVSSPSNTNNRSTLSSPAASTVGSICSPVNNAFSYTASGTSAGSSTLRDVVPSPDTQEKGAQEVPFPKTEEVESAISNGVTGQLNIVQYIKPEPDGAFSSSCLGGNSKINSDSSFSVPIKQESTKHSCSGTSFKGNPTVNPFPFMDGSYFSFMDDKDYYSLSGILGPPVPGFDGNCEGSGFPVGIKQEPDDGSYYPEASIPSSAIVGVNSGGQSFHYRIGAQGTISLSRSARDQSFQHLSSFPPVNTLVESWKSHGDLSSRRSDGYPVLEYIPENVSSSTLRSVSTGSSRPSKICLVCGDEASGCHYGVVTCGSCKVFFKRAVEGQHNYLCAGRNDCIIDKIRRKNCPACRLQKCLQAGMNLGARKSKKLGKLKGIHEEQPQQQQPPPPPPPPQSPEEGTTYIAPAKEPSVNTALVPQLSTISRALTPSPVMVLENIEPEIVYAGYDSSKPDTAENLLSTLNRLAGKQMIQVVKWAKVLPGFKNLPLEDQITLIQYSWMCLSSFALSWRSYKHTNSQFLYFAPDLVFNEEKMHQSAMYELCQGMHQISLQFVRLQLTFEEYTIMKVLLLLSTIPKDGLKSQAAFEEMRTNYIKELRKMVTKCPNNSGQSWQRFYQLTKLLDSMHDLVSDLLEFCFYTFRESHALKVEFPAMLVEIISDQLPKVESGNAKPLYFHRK
# Assay: Antagonist activity at human mineralocorticoid receptor assessed as inhibition of binding to coactivator peptide by NH Pro assay
row,SMILES,IC50
1,COc1cc(CNC(=O)[C@@]2(Cc3ccc(Cl)cc3)OC(=O)N([C@H](C)c3ccccc3)C2=O)cc(OC)c1,> 40000 nM
2,COc1cc(CNC(=O)[C@@]2(Cc3cccc(Cl)c3)OC(=O)N([C@H](C)c3ccccc3)C2=O)cc(OC)c1,750 nM
3,COc1cc(CNC(=O)[C@@]2(Cc3ccccc3Cl)OC(=O)N([C@H](C)c3ccccc3)C2=O)cc(OC)c1,450 nM
4,COc1cc(CNC(=O)[C@@]2(Cc3ccc4ccccc4c3)OC(=O)N([C@H](C)c3ccccc3)C2=O)cc(OC)c1,> 40000 nM
5,COc1cc(CNC(=O)[C@@]2(Cc3ccc4nonc4c3)OC(=O)N([C@H](C)c3ccccc3)C2=O)cc(OC)c1,> 40000 nM
6,COc1cc(CNC(=O)[C@@]2(Cc3cccc4nonc34)OC(=O)N([C@H](C)c3ccccc3)C2=O)cc(OC)c1,> 40000 nM
7,COc1cc(CNC(=O)[C@@]2(Cc3ccccc3)OC(=O)N(C(C)C)C2=O)cc(OC)c1,500 nM
8,COc1cc(CNC(=O)[C@@]2(Cc3ccccc3)OC(=O)N([C@@H](C)c3ccccc3)C2=O)cc(OC)c1,500 nM
9,COc1cc(CNC(=O)[C@@]2(Cc3ccccc3)OC(=O)N([C@H](C)c3ccc(F)cc3)C2=O)cc(OC)c1,37 nM
10,COc1cc(CNC(=O)[C@@]2(Cc3ccccc3)OC(=O)N([C@H](C)c3ccc(Cl)cc3)C2=O)cc(OC)c1,55 nM
11,COc1cc(CNC(=O)[C@@]2(Cc3ccccc3)OC(=O)N([C@H](C)C3CCCCC3)C2=O)cc(OC)c1,14 nM
12,COc1cc(CNC(=O)[C@@]2(Cc3ccccc3)OC(=O)N(C3CCCc4ccccc43)C2=O)cc(OC)c1 (stereo not given in full),170 nM
13,CC[C@H](c1ccccc1)N1C(=O)O[C@](Cc2ccccc2)(C(=O)NCc2cc(OC)cc(OC)c2)C1=O,400 nM
14,COc1cc(CNC(=O)[C@@]2(Cc3ccccc3)OC(=O)N(C3CCN(C(=O)C(F)(F)F)CC3)C2=O)cc(OC)c1,2900 nM
15,COc1cc(CNC(=O)[C@@]2(Cc3ccccc3)NC(=O)N(Cc3ccccc3)C2=O)cc(OC)c1,> 40000 nM
16,COc1cc(CNC(=O)[C@]2(Cc3ccccc3)C(=O)N(Cc3ccccc3)C(=O)N2C)cc(OC)c1,> 40000 nM
17,COc1cc(CNC(=O)C2(Cc3ccccc3)CN(Cc3ccccc3)C(=O)N2)cc(OC)c1 (stereo not given),> 40000 nM
18,COc1cc(CNC(=O)C2(Cc3ccccc3)CCN(Cc3ccccc3)C2)cc(OC)c1 (stereo not given),> 40000 nM
19,COc1cc(CNC(=O)C2(Cc3ccccc3)CC(=O)N([C@H](C)c3ccccc3)C2=O)cc(OC)c1 (stereo not given in full),> 40000 nM
20,COc1cc(CNC(=O)C2(Cc3ccccc3)CCN([C@H](C)c3ccccc3)C2=O)cc(OC)c1 (stereo not given in full),> 10000 nM
21,COc1cc(CNC(=O)C2(Cc3ccccc3)CN(Cc3ccccc3)C(=O)O2)cc(OC)c1 (stereo not given),> 40000 nM
22,C[C@H](c1ccccc1)N1C(=O)O[C@](Cc2ccccc2)(C(=O)N2CCc3ccccc3C2)C1=O,340 nM
23,C[C@H](c1ccccc1)N1C(=O)N[C@](Cc2ccccc2)(C(=O)N2CCc3ccccc3C2)C1=O,990 nM
24,COc1cccc(CNC(=O)[C@@]2(Cc3ccccc3)OC(=O)N(Cc3ccccc3)C2=O)c1,1000 nM

row,SMILES,IC50
1,COc1cccc(CNC(=O)[C@@]2(Cc3ccccc3)OC(=O)N([C@H](C)c3ccccc3)C2=O)c1,300 nM
2,COc1ccc(CNC(=O)[C@@]2(Cc3ccccc3)OC(=O)N([C@H](C)c3ccccc3)C2=O)cc1,1000 nM
3,COc1ccccc1CNC(=O)[C@@]1(Cc2ccccc2)OC(=O)N([C@H](C)c2ccccc2)C1=O,500 nM
4,COc1cc(CNC(=O)[C@@]2(Cc3ccccc3)OC(=O)N(Cc3ccccc3)C2=O)cc(OC)c1,3000 nM
5,C[C@H](c1ccccc1)N1C(=O)O[C@](Cc2ccccc2)(C(=O)NCc2ccc(Cl)cc2)C1=O,200 nM
6,C[C@H](c1ccccc1)N1C(=O)O[C@](Cc2ccccc2)(C(=O)NCc2cccc(Cl)c2)C1=O,280 nM
7,C[C@H](c1ccccc1)N1C(=O)O[C@](Cc2ccccc2)(C(=O)N[C@H](C)c2cccc(Cl)c2)C1=O,400 nM
8,C[C@H](NC(=O)[C@@]1(Cc2ccccc2)OC(=O)N([C@H](C)c2ccccc2)C1=O)c1cccc(Cl)c1,2600 nM
9,C[C@H](c1ccccc1)N1C(=O)O[C@](Cc2ccccc2)(C(=O)NCc2ccc(C(F)(F)F)cc2)C1=O,570 nM
10,C[C@H](c1ccccc1)N1C(=O)O[C@](Cc2ccccc2)(C(=O)NCc2cccc(C(F)(F)F)c2)C1=O,500 nM
11,C[C@H](c1ccccc1)N1C(=O)O[C@](Cc2ccccc2)(C(=O)NCc2ccc(S(C)(=O)=O)cc2)C1=O,> 10000 nM
12,C[C@H](c1ccccc1)N1C(=O)O[C@](Cc2ccccc2)(C(=O)NCc2cccc(S(C)(=O)=O)c2)C1=O,3000 nM
13,C[C@H](c1ccccc1)N1C(=O)O[C@](Cc2ccccc2)(C(=O)Nc2ccc3ccccc3c2)C1=O,600 nM
14,C[C@H](c1ccc(F)cc1)N1C(=O)O[C@](Cc2ccccc2)(C(=O)Nc2ccccc2)C1=O,270 nM
15,C[C@H](c1ccc(F)cc1)N1C(=O)O[C@](Cc2ccccc2)(C(=O)Nc2ccc(Cl)cc2)C1=O,180 nM
16,C[C@H](c1ccccc1)N1C(=O)O[C@](Cc2ccccc2)(C(=O)Nc2cccc(Cl)c2)C1=O,2000 nM
17,C[C@H](c1ccccc1)N1C(=O)O[C@](Cc2ccccc2)(C(=O)Nc2ccccc2Cl)C1=O,1000 nM
18,C[C@H](c1ccccc1)N1C(=O)O[C@](Cc2ccccc2)(C(=O)Nc2ccc(F)cc2)C1=O,100 nM
19,C[C@H](c1ccccc1)N1C(=O)O[C@](Cc2ccccc2)(C(=O)Nc2cccc(F)c2)C1=O,300 nM
20,C[C@H](c1ccccc1)N1C(=O)O[C@](Cc2ccccc2)(C(=O)Nc2ccc(C#N)cc2)C1=O,100 nM
21,C[C@H](c1ccccc1)N1C(=O)O[C@](Cc2ccccc2)(C(=O)NC2CCCCC2)C1=O,4000 nM
22,C[C@H](c1ccccc1)N1C(=O)O[C@](Cc2ccccc2)(C(=O)NC2CCC2)C1=O,1200 nM
23,C[C@H](c1ccccc1)N1C(=O)O[C@](Cc2ccccc2)(C(=O)NC2CC2)C1=O,2000 nM
24,C[C@H](c1ccccc1)N1C(=O)O[C@](Cc2ccccc2)(C(=O)N[C@H]2C[C@@H](c3ccccc3)C2)C1=O,650 nM

row,SMILES,IC50
1,C[C@H](c1ccccc1)N1C(=O)O[C@](Cc2ccccc2)(C(=O)N[C@H]2C[C@H](c3ccccc3)C2)C1=O,190 nM
2,C[C@H](c1ccccc1)N1C(=O)O[C@](Cc2ccccc2)(C(=O)N[C@@H]2C[C@H]2c2ccccc2)C1=O,250 nM
3,Cc1cc(CNC(=O)[C@@]2(Cc3ccccc3)OC(=O)N([C@H](C)c3ccccc3)C2=O)on1,3000 nM
4,CCn1cc(CNC(=O)[C@@]2(Cc3ccccc3)OC(=O)N([C@H](C)c3ccccc3)C2=O)cn1,> 10000 nM
5,C[C@H](c1ccccc1)N1C(=O)O[C@](Cc2ccccc2)(C(=O)NCc2ccncc2)C1=O,> 40000 nM
6,C[C@H](c1ccccc1)N1C(=O)O[C@](Cc2ccccc2)(C(=O)NCc2cccnc2)C1=O,13000 nM
7,C[C@H](c1ccccc1)N1C(=O)O[C@](Cc2ccccc2)(C(=O)NCc2ccccn2)C1=O,16000 nM
8,O=C1O[C@](Cc2ccccc2)(C(=O)NCc2nccs2)C(=O)N1Cc1ccccc1,> 40000 nM
9,C[C@H](c1ccccc1)N1C(=O)O[C@](Cc2ccccc2)(C(=O)NCc2ccc3ccccc3n2)C1=O,2500 nM
10,C[C@H](c1ccccc1)N1C(=O)O[C@](Cc2ccccc2)(C(=O)NCc2ccc3cnccc3c2)C1=O,1500 nM
11,C[C@H](c1ccccc1)N1C(=O)O[C@](Cc2ccccc2)(C(=O)NCc2cccc3cnccc23)C1=O,3000 nM
12,C[C@H](c1ccccc1)N1C(=O)O[C@](Cc2ccccc2)(C(=O)NCc2cccc3ccnn23)C1=O,300 nM
13,C[C@H](c1ccccc1)N1C(=O)O[C@](Cc2ccccc2)(C(=O)NCCc2ccncc2)C1=O,4000 nM
14,C[C@H](c1ccccc1)N1C(=O)O[C@](Cc2ccccc2)(C(=O)NCCc2ccccn2)C1=O,15000 nM
15,C[C@H](c1ccccc1)N1C(=O)O[C@](Cc2ccccc2)(C(=O)NCCc2nnc[nH]2)C1=O,> 40000 nM
16,C[C@H](c1ccccc1)N1C(=O)O[C@](Cc2ccccc2)(C(=O)NCCc2cn[nH]c2)C1=O,> 40000 nM
17,COc1cc(CNC(=O)[C@H]2OC(=O)N(Cc3ccccc3)C2=O)cc(OC)c1,> 40000 nM
18,COc1cc(CNC(=O)[C@@]2(Cc3ccncc3)OC(=O)N(Cc3ccccc3)C2=O)cc(OC)c1,30000 nM
19,COc1cc(CNC(=O)[C@@]2(Cc3ccccn3)OC(=O)N([C@H](C)c3ccccc3)C2=O)cc(OC)c1,3000 nM
20,COc1cc(CNC(=O)[C@@]2(Cc3ccc(F)cc3)OC(=O)N([C@H](C)c3ccccc3)C2=O)cc(OC)c1,200 nM
21,COc1cc(CNC(=O)[C@@]2(Cc3cccc(F)c3)OC(=O)N([C@H](C)c3ccccc3)C2=O)cc(OC)c1,280 nM
22,COc1cc(CNC(=O)[C@@]2(Cc3ccccc3F)OC(=O)N([C@H](C)c3ccccc3)C2=O)cc(OC)c1,300 nM

# Reference: ChEMBL document CHEMBL2407028, “Discovery of novel oxazolidinedione derivatives as potent and selective mineralocorticoid receptor antagonists” (Bioorg Med Chem Lett, 2013)
